Data as given in publication PMC3139112 (Journal of molecular biology, 2011).

Each sequence was assayed against A3G (APOBEC3G) (Homo sapiens, UniProt Q9HC16). Conditions: 1 μM peptide (Fig. 3B).
A3G (APOBEC3G), sequence (Q9HC16 whole entry): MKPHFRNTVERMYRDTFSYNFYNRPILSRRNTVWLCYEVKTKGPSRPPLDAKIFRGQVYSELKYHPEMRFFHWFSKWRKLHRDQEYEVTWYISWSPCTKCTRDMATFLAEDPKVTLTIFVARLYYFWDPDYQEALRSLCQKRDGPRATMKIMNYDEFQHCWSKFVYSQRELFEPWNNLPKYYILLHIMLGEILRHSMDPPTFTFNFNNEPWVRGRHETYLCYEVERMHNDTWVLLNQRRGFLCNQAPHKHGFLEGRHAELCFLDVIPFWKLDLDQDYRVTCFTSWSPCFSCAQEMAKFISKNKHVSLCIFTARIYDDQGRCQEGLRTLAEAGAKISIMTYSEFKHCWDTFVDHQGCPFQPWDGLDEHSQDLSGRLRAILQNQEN
Format: biochemical
In the case of GWFYRHHYESTHPRI [Vif37-51], the “inhibition of A3G deaminase activity (peptide screen)” value (“inhibition of A3G deaminase activity” below) is reported as “inhibited the A3G deaminase activity”.
For DCFSESAIRNAILGH [Vif113-127], the “inhibition of A3G deaminase activity” value was “inhibited the A3G deaminase activity”.
For IVWQVDRMRIRTWKS [Vif9-23], the “inhibition of A3G deaminase activity” value was “inhibited the A3G deaminase activity”.
DLADQLIHLYYFDCF [Vif101-115] was tested, and the “inhibition of A3G deaminase activity” value was “inhibited the A3G deaminase activity”.
